{"source": "patent US20230135127A1", "about": "“COMPOSITIONS AND METHODS FOR DISEASE TREATMENT AND PREVENTION BY PH MODIFIERS AND/OR CELL PROLIFERATION INHIBITORS” (priority 2021, published 2023)", "key": {"[1]": {"tested_on": "white bone marrow (WBM) cells", "conditions": "for Ki-67hi cells in bone marrow B lineage (CD19+) cells: i.p. x3, 1 day after third treatment, saline 5.59%; for Ki-67hi cells in non-B lineage cells of non-granulocyte WBM cells: i.p. x3, saline 11.5%", "procedure": "(§1) For all examples, treatments of the mice were carried out either by i.t. (intra-tracheal) instillation or i.p. injection. For i.t. instillation, 60 μl of treatment solution of saline or saline plus 175 mM HCl or HOAc was instilled into the trachea of a mouse using a pipet tip. For i.p. injection, 200 μl of saline or saline plus 87.5 mM HCl, HOAc or NaOH was injected into the peritoneal cavity of a mouse using a 26 or 27G needle. At the time of the first treatment the body weights of the mice ranged about 19 to 30 g.\n(§2) Cells were washed 3 times with PBS then stained with Zombie viability dyes at room temperature for 20 minutes. At the end of incubation, 10% volume of FBS was added to absorb excess Zombie dyes. After washes, the cells were stained with conjugated antibodies against surface antigens on ice. As specified in some experiments, the cells were subsequently stained with fluorochrome-conjugated Avidin. For Annexin V staining, cells were washed twice with plain PBS and once with Annexin V binging buffer (10 mM HEPES, pH7.4, 140 mM NaCl, 2.5 mM CaCl2)) after surface antigen staining, and incubated with fluorochrome-conjugated Annexin V in Annexin V binding buffer for 15 min at room temperature. The cells were washed twice in Annexin V binding buffer and resuspended in Annexin V binding buffer. 7-AAD was added to the cells before analyzed by flow cytometry. For Ki-67 and Foxp3 staining, lymphocytes (after Zombie dye and surface antigen staining) or tumor cells (without surface antigen staining) were fixed and permeabilized using Foxp3 staining buffer kit, then stained with PE-conjugated anti-mouse or human Ki-67 antibodies. (Biolegend, San Diego, Calif., USA). Stained and unstained cells were analyzed on Accuri C6 Flow Cytomer (Accuri Cytometers, Inc., Ann Arbor, Mich.), FACS Canto (BD Bioscience, San Jose, Calif., USA) and Attune™ cytometer (Invitrogen, Carlsbad, Calif.). Data analyses were carried out using FlowJo X.\nLike lymph nodes, bone marrow is one of the most common sites for tumor metastasis. (106). In addition, primary tumors or tumor-like lesions can also occur in the bone. (107). […] In this example, C57BL/6 mice were treated with i.p. injection of saline, or saline plus HCl or HOAc every other day for 3 times. Bone marrow cells were extracted from both tibias 1 day after the third treatment for the study of B lineage cells, and for the studies of other cell types 3 days after the third i.p. treatment with saline or saline plus HOAc, and alternatively, mice received one i.t. injection of saline or saline plus HOAc, bone marrow was extracted from tibias the next day."}, "[2]": {"tested_on": "C57BL/6 mice immunized with MOG35-55 (EAE)", "conditions": "for mice with clinical scores lower than at initiation of treatment: by day 4, 5 HCl mice, 9 HOAc mice; for average EAE clinical score: day 4 after initiation of treatment, saline 3.46; for inflammation in the spinal cords (histology): day 4 post initiation of treatment; for mice that reached clinical score of 4 or above: i.p. 87.5 mM, 4 doses from score 1.5-2.5, saline 10 of the 11", "procedure": "Induction of experimental autoimmune encephalomyelitis (EAE), the mouse model of multiple sclerosis, was carried out as previously described. (94). (Also see https://hookelabs.com/protocols/eaeAI_C57BL6.html). […] The final antigen emulsion comprised 1.5 mg/ml of MOG35-55, 189 μg/ml of M. tuberculosis H37Ra and 50% (by volume) IFA.\nFemale C57BL/6 mice of 9 weeks old were acclimated at CRDAL for 1 week. On day 0, mice were immunized by s.c. (subcutaneous) injection of the antigen emulsion at 4 evenly distributed sites in the dorsal area (25 μl/site). Two hours later, the mice were i.p. injected with Pertussis Toxin (List Biological laboratories, Campbell, Calif., USA) freshly prepared in ice-cold PBS (200 ng in 100 μl PBS/mouse). On day 1, the mice received a second i.p. injection of Pertussis Toxin at the same dosage. […] Mice with clinical score of 3 or above were provided wet chows and hydrogels.\nIn the EAE model of Example 2, two types of experiments, i.e., therapeutic and preventive experiments, were carried out. For the therapeutic experiments, on the day when the mice first reached the clinical scores of 1.5 to 2.5, the mice received i.p. treatments with saline, or saline plus 87.5 mM HCl or HOAc. The mice received additional 3 i.p. treatments every other day. […] The mice received i.p. treatments every other day for additional 2 doses. Clinical scores of all mice were recorded daily during and after the treatment periods, but experimentation was terminated on mice that reached clinical score of 5. As specified in some experiments, mice were sacrificed, and spinal cords were collected for histology analyses.\nLungs (after BALF collection), spinal cords and intestines were harvested and fixed in 10% neural formalin (Fisher Scientific, Kalamazoo, Mich., USA). […] Periodic acid-Schiff (PAS) staining was also performed with the lung tissue sections to determine mucus secretion in the lungs as a result of the inflammatory infiltration."}, "[3]": {"tested_on": "granulocytes and lymphocytes in the blood", "conditions": "RBC-depleted blood"}, "[4]": {"tested_on": "C57BL/6 mice immunized with MOG35-55 (EAE)"}, "[5]": {"tested_on": "lymphocytes, eosinophils, macrophages in BALF; neutrophils in blood", "procedure": "as §2"}, "[6]": {"tested_on": "lesions of allergic contact dermatitis"}, "[7]": {"tested_on": "white bone marrow (WBM) cells", "procedure": "as §1, §2\nTo provide an example of this aspect of the present invention, C57BL/6 mice received i.p. treatments with saline or saline plus NaOH every other day for a total of 3 doses. Bone marrows were extracted from both tibias on day 1 or 3 after the final treatment."}, "[8]": {"conditions": "about 5.25M in water, topical 4 times a day, day 1"}}, "note": "Counter-ions that a name gives are not always drawn. Like-named read-outs stand apart in the source and are kept apart here."}
{"compound": "Cl", "note": "[HCl, hydrochloric acid]", "values": [{"measurement": "Ki-67hi cells in bone marrow B lineage (CD19+) cells", "setting": "[1]", "value": 2.83, "unit": "%"}, {"measurement": "Ki-67hi cells in non-B lineage cells of non-granulocyte WBM cells", "setting": "[1]", "value": 6.34, "unit": "%"}, {"measurement": "mice with clinical scores lower than at initiation of treatment", "setting": "[2]", "value": "all"}, {"measurement": "average EAE clinical score", "setting": "[2]", "value": 0.9}, {"measurement": "inflammation in the spinal cords (histology)", "setting": "[2]", "value": "no obvious inflammation"}, {"measurement": "mice that reached clinical score of 4 or above", "setting": "[2]", "value": "none of the 5"}]}
{"compound": "CC(=O)O", "note": "[HOAc, acetic acid]", "values": [{"measurement": "percentage of lymphocytes in blood", "setting": "[3]; saline 22.9%", "value": 13.6, "unit": "%"}, {"measurement": "percentage of granulocytes in blood", "setting": "[3]; saline 32.6%", "value": 1.1, "unit": "%"}, {"measurement": "rate of disease onset (mice with EAE)", "setting": "[4]; day 2 after initiation of i.p. treatment, saline 50%", "value": 30, "unit": "%"}, {"measurement": "maximum rate of disease onset", "setting": "[4]; reached 5 days after initiation, saline 80% on day 3", "value": 60, "unit": "%"}, {"measurement": "apoptotic (Annexin V+7-AAD+) macrophages in BALF", "setting": "[5]; i.t. after 3rd challenge, saline 0.71%", "value": 56.4, "unit": "%"}, {"measurement": "apoptotic (Annexin V+7-AAD+) eosinophils in BALF", "setting": "[5]; i.t. after 3rd challenge, saline 2.87%", "value": 95.2, "unit": "%"}, {"measurement": "apoptotic (Annexin V+7-AAD+) lymphocytes in BALF", "setting": "[5]; i.t. after 3rd challenge, saline 3.15%", "value": 85.3, "unit": "%"}, {"measurement": "apoptotic neutrophils (Ly6G high) in blood", "setting": "[5]; saline 7.61%", "value": 38.4, "unit": "%"}, {"measurement": "rash in lesion 2", "setting": "[6]; [8]", "value": "almost completely disappeared"}, {"measurement": "rashes in lesion 1", "setting": "[6]; [8]", "value": "partially disappeared"}, {"measurement": "rashes in both lesions", "setting": "[6]; by day 2 and day 3, treated day 0 and day 1", "value": "completely disappeared"}, {"measurement": "Ki-67hi cells in bone marrow T (CD3+) cells", "setting": "[1]; i.p. treated, saline 4.21%", "value": 2.46, "unit": "%"}, {"measurement": "Ki-67hi HSC", "setting": "[1]; i.p. treated, saline 11.1%", "value": "no Ki-67^hi HSC were detected"}, {"measurement": "Ki-67hi cells in erythroid (TER-119+) lineage cells", "setting": "[1]; i.p. treated, saline 72.3%", "value": 46.9, "unit": "%"}, {"measurement": "Ki-67hi cells in bone marrow B lineage (CD19+) cells", "setting": "[1]", "value": 3.3, "unit": "%"}, {"measurement": "Ki-67hi cells in non-B lineage cells of non-granulocyte WBM cells", "setting": "[1]", "value": 5.11, "unit": "%"}, {"measurement": "Ki-67hi cells in bone marrow T (CD3+) cells", "setting": "[1]; i.t. treated, one injection, saline 4.88%", "value": 2.44, "unit": "%"}, {"measurement": "Ki-67hi HSC", "setting": "[1]; i.t. treated, saline 5.56%", "value": "no Ki-67^hi HSC were detected"}, {"measurement": "Ki-67hi cells in erythroid (TER-119+) lineage cells", "setting": "[1]; i.t. treated, saline 67.3%", "value": 33.3, "unit": "%"}, {"measurement": "mice with clinical scores lower than at initiation of treatment", "setting": "[2]", "value": 6}, {"measurement": "average EAE clinical score", "setting": "[2]", "value": 1.78}, {"measurement": "inflammation in the spinal cords (histology)", "setting": "[2]", "value": "no obvious inflammation"}, {"measurement": "mice that reached clinical score of 4 or above", "setting": "[2]", "value": "1 of the 9"}, {"measurement": "mice whose clinical score remained the same", "setting": "[2]; mouse, in vivo", "value": 2}]}
{"compound": "[Na+].[OH-]", "note": "[NaOH, sodium hydroxide]", "values": [{"measurement": "Ki-67hi cells in B lineage cells", "setting": "[7]; day 1, saline 4.85%", "value": 24.8, "unit": "%"}, {"measurement": "Ki-67hi cells in non-B lineage cells", "setting": "[7]; day 1, saline 11.2%", "value": 35.3, "unit": "%"}, {"measurement": "Ki-67lo cells in B lineage cells", "setting": "[7]; day 1, saline 34.7%", "value": 61.6, "unit": "%"}, {"measurement": "Ki-67hi MPP", "setting": "[7]; day 3, saline 0%", "value": 2.54, "unit": "%"}, {"measurement": "percentage of T (CD3+) cells in WBM cells", "setting": "[7]; day 3, saline 0.69%", "value": 0.87, "unit": "%"}, {"measurement": "Sca-1+ c-kit+ stem cells in Lin- WBM cells", "setting": "[7]; day 3, saline 0.81%", "value": 1.74, "unit": "%"}, {"measurement": "Ki-67hi cells in T cells", "setting": "[7]; day 3, saline 2.86%", "value": 11.6, "unit": "%"}, {"measurement": "Ki-67hi HSC", "setting": "[7]; day 3, saline 6.67%", "value": 15.6, "unit": "%"}, {"measurement": "Ki-67neg TER-119+ cells", "setting": "[7]; day 3, saline 7.11%", "value": 6.72, "unit": "%"}, {"measurement": "percentage of TER-119+ cells in lymphoid and myeloid negative WBM cells", "setting": "[7]; day 3, saline 14.6%", "value": 17.5, "unit": "%"}, {"measurement": "percentage of CD11c+ TCR- cells in WBM cells", "setting": "[7]; day 3, saline 18.4%", "value": 64, "unit": "%"}, {"measurement": "Ki-67lo cells in T cells", "setting": "[7]; day 3, saline 20%", "value": 28.7, "unit": "%"}, {"measurement": "Ki-67lo MPP", "setting": "[7]; day 3, saline 21.9%", "value": 30.7, "unit": "%"}, {"measurement": "Ki-67lo TER-119+ cells", "setting": "[7]; day 3, saline 25.3%", "value": 16, "unit": "%"}, {"measurement": "Ki-67+ cells within the Ly6G+ population", "setting": "[7]; day 3, saline 33.7%", "value": 43.6, "unit": "%"}, {"measurement": "Ki-67+ cells in CD11c+ TCR- cells", "setting": "[7]; day 3, saline 39.5%", "value": 70.1, "unit": "%"}, {"measurement": "percentage of Ly6G+ cells in WBM cells", "setting": "[7]; day 3, saline 42.4%", "value": 57.7, "unit": "%"}, {"measurement": "Ki-67hi TER-119+ cells", "setting": "[7]; day 3, saline 67%", "value": 76.2, "unit": "%"}, {"measurement": "increase of average total number of WBM cells vs saline", "setting": "[7]; i.p. x3, both tibias", "value": 88, "unit": "%"}, {"measurement": "percentage of CD19+ B lineage cells in non-granulocyte WBM cells", "setting": "[7]; one day after three i.p. treatments, saline about 11%", "value": 17, "unit": "%"}, {"measurement": "average percentage of WBM cells in total bone marrow cells", "setting": "[7]; saline less than 14%", "value": "over 29%"}, {"measurement": "tolerance of i.t. instillation", "setting": "mice", "value": "poorly tolerant"}]}
